Assay results taken from US8304452B2, “Radical scavenger and active oxygen eliminating agent” (InBiotex Inc., priority 2005, dated 2012).

Tested on: human LDL
Test: Lipid peroxide-suppressing action: CuSO4-induced LDL oxidation, TBARS assay (Example 1)
Type: biochemical
Details: 0.2 mg/mL LDL + 5 μM CuSO4, 37° C., 3 hours, mean, n=2
Method: As an action of capturing free group (free radical-scavenging action), the effect of N-β-alanyl-5-S-glutathionyl-3,4-dihydroxyphenylalanine (5-S-GAD) on LDL oxidation was examined. As controls, dopamine and Carnosine (under trade name; N-acetylcarnosine as the ingredient name) used as eye drops for cataract were used. LDL was prepared by a fractionation and centrifugation method. A fraction at a specific gravity of 1.019 to 1.063 g/mL in serum was defined as human LDL. 5 μM CuSO4, 5-S-GAD (3 to 100 μM) and N-acetyl-carnosine (100 μM to 10 mM) or L-carnosine (10 μM to 10 mM) were added to 0.2 mg/mL LDL, for incubation at 37° C. for 3 hours. After termination of the incubation, TBARS (a substance reactive with thiobarbituric acid) was assayed. Although the TBA reaction is a non-specific reaction, the reaction is used for a method of assaying various lipid peroxide products including malone dialdehyde. An experiment of peroxidation with copper sulfate was done twice (N=2). An aqueous solution containing 3.75 mg/mL thiobarbituric acid (TBA), 150 mg/mL trichloroacetic acid (TCA) and 0.25 N hydrochloric acid (HCl) was prepared as the TBA reagent, while tetramethoxypropane was used to prepare standard solutions (2, 5, 10, 20, 40 μM). 100 μL each of an LDL sample or a standard solution was added together with 200 μL of the TBA reagent into an Eppendorf tube (1.5 mL), which was then sealed with a cap for thorough mixing. After heating at 95° C. for 15 minutes, the resulting mixture was cooled in water and centrifuged at 3000 rpm for 5 minutes. The supernatant was assayed of the absorbance (535 nm). Based on the absorbance of the standard solutions, a standard curve was prepared. Based on the standard curve, the amount of TBARS in the LDL sample was calculated (in nmol/mg LDL protein) (mean, n=2, see Table 1 and FIG. 1).

NCCc1ccc(O)c(O)c1 [dopamine, reference compound]
Amount of TBARS (10 μM added): 58.853 nmol/mg LDL protein | Amount of TBARS (30 μM added): 4.454 nmol/mg LDL protein | Amount of TBARS (100 μM added): 4.208 nmol/mg LDL protein
